Patent US20210177982A1, “MUCUS-PENETRATING PEPTIDES, DELIVERY VEHICLES AND METHODS OF THERAPY” (DNALite Therapeutics, Inc., priority 2018, published 2021)

Legend:
[1] = pH 7 (No salt); cited from earlier work
[2] = 25° C., RP-HPLC, Ac-X-G-A-K-G-A-G-V-G L-amide; cited from earlier work
[3] = In-vivo distribution assay (intrarectal, colon cryosections, epifluorescence); design: species or system BALB/c female mice; conditions: peptide-coupled DiI/DiO lipid nanoparticle, 30 μg DNA intrarectally, colon after 4 hours, compared to base lipid nanoparticle
Protocol: Three separate lipid nanoparticle formulations were prepared, one coupled to SEQ ID NO: 29, another coupled to transactivator of transcription peptide (TAT; SEQ ID NO:37) and the last without any coupling, all carried plasmid DNA and included 0.5% mol DiI and DiO labeling. 30 μg of DNA encapsulated in the DiI/DiO lipid nanoparticle are dosed intrarectally in BALB/c female mice (Charles River Laboratory, MA) anesthetized under 1-3% isofluorane. After 4 hours, the mice are euthanized under 25% CO2 and the colon is removed and embedded in optimal cutting temperature (OCT) media. The OCT media sections are flash frozen at −80 degrees Celsius and intestinal sections are taken in a cryostat. Epifluorescence images are taken of crypts under 531 nm excitation with 593 nm emission and overlaid with brightfield illumination. FIGS. 32A-32B.

[4] = molecular target: T1, Poliovirus Receptor (Homo sapiens, UniProt P15151); conditions: cited from earlier work
T1 sequence (P15151 21-417): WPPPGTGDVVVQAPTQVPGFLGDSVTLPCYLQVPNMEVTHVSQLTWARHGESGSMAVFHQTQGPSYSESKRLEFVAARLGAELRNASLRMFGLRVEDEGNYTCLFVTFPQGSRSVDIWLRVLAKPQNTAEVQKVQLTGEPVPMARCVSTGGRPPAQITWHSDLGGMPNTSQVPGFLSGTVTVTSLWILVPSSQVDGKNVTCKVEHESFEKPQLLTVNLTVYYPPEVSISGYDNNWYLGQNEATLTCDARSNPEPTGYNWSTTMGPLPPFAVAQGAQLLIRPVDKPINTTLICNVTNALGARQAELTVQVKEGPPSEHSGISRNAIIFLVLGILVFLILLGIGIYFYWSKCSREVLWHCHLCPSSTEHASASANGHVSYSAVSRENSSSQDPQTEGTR

Compound	Fauchere Score [1]	ΔtR(Gly), pH 2, 20 mM H3PO4 [2]	ΔtR(Gly), pH 2, 20 mM TFA [2]	ΔtR(Gly), pH 5, 10 mM PO4 Buffer [2]	ΔtR(Gly), pH 7, 10 mM PO4 Buffer +50 mM NaCl [2]	ΔtR(Gly), pH 7, 10 mM PO4 Buffer +50 mM NaClO4 [2]	ΔtR(Gly), pH 7, 10 mM PO4 Buffer, No Salt [2]	distribution of the particle at the surface of the intestinal epithelial cells [3]	interaction with the Poliovirus Receptor [4]
O=C(O)[C@@H]1CCCN1 [Pro]	0.720	9.4	9.0	9.4	10.4	9.9	9.7	–	–
C[C@@H](O)[C@H](N)C(=O)O [Thr]	0.260	2.8	2.3	2.8	4.1	2.5	3.9	–	–
N[C@@H](Cc1c[nH]c2ccccc12)C(=O)O [Trp]	2.250	32.3	32.4	33.2	33.0	33.7	32.9	–	–
N[C@@H](Cc1ccc(O)cc1)C(=O)O [Tyr]	0.960	15.4	14.7	15.2	16.0	15.1	15.4	–	–
CC(C)[C@H](N)C(=O)O [Val]	1.220	13.8	13.4	14.0	15.0	14.6	14.4	–	–
GRKKRRQRRRPQ (Human immunodeficiency virus) [SEQ ID NO. 37]	–	–	–	–	–	–	–	reduced the distribution of the particle at the surface of the intestinal epithelial cells	–
TVDNPASTTNKDKLFAV [SEQ ID NO. 28]	–	–	–	–	–	–	–	–	has been shown to interact with the Poliovirus Receptor
